From US20230120597A1, “CO-AGONISTS AT GLP-1 AND GIP RECEPTORS SUITABLE FOR ORAL DELIVERY” (Novo Nordisk A/S, priority 2020, published 2023)
Where two headings read alike, the source gives them in different places. Starred links: 1 amine or outer side, 2 acyl side, 3 side chain; linkers in the order of their positions; H or OH if unused. Non-standard residues stand in square brackets, D forms with d. Residues, ends and D or L forms follow the SMILES beside them. Groups on a side chain read outwards from the residue. *: point of attachment. C18 diacid = O=C(O)CCCCCCCCCCCCCCCCC(=O)*; γGlu = O=C(O)[C@H](CCC(=O)[*:2])N[*:1]; εLys = N[C@@H](CCCCN[*:1])C(=O)[*:2]; Aib = CC(C)(N)C(=O)O

What was measured:
[1] = target: T1, human GIP receptor (Homo sapiens, UniProt P48546); experiment: In vitro functional potency, CRE luciferase reporter gene assay, whole BHK cells expressing hGIPR; assay type: cell-based; conditions: BHK CRE luc2P hGIPR cells
T1 construct: expressed in transfected cells; host or cells: BHK (parent line BHKTS13), clone BHK CRE luc2P hGIPR
T1 sequence (P48546 22-466): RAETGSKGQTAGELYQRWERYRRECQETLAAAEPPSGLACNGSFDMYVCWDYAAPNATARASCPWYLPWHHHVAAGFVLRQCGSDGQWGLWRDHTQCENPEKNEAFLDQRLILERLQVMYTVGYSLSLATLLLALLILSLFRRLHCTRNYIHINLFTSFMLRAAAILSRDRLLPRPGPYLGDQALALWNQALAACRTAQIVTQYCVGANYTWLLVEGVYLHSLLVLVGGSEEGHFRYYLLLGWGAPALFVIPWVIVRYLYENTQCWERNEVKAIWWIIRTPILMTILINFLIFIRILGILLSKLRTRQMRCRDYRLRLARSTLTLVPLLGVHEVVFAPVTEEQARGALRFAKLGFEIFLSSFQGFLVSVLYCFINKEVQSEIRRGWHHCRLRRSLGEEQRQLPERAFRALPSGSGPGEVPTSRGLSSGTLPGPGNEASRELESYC
Experimental: (§1) The in vitro functional potency is the measure of target receptor activation in a whole cell assay.
(§2) In vitro functional potency was determined by measuring the response of the target receptor in a reporter gene assay in individual cell lines. […] When the respective receptor is activated, it results in the production of cAMP, which in turn results in expression of the luciferase protein. When assay incubation is completed, luciferase substrate (luciferin) is added resulting in the enzymatic conversion of luciferin to oxyluciferin and producing bioluminescence. The luminescence is measured as the readout for the assay.
(§3) The cells lines used in these assays were BHK cells with BHKTS13 as a parent cell line. The cell lines were derived from a clone containing the CRE luciferase element and were established by further transfection with the respective human receptor to obtain the relevant cell line: BHK CRE luc2P hGLP-1R or BHK CRE luc2P hGIPR. The cells were cultured at 37° C. with 5% CO2 in Cell Culture Medium. They were aliquoted and stored in liquid nitrogen. The cells were kept in continuous culture and were seeded out the day before each assay.
(§4) GLP-1R Cell Culture Medium consisted of DMEM medium with 10% FBS, 500 μg/mL G418, and 300 μg/mL hygromycin. GIPR Cell Culture Medium consisted of DMEM medium with 10% FBS, 400 μg/mL G418, and 300 μg/mL hygromycin. Assay Buffer consisted of DMEM w/o phenol red, 10 mM Hepes, 1× Glutamax. 1% ovalbumin, and 0.1% Pluronic F-68 with the addition of HSA at twice the final assay concentration.
(§5) Procedure • 1) Cells were plated at 5000 cells/well and incubated overnight in the assay plate. • 2) Cells were washed once in DPBS. • 3) Stocks of the test compounds and reference compounds in concentrations ranging from […] were diluted 1:150 in Assay Buffer. Compounds were then diluted 1:10 in column 1 of a 96 deep well dilution plate and then carried across the row creating a 3.5 fold, 12 point dilution curve. • 4) Assay Buffer (50 μl aliquot) with or without HSA was added to each well in the assay plate. • 5) A 50 μl aliquot of compound or blank was transferred from the dilution plate to the assay plate containing the Assay Buffer with or without HSA. • 6) The assay plate was incubated for 3 h in a 5% CO2 incubator at 37° C. • 7) The cells were washed once with DPBS. • 8) A 100 μl aliquot of DPBS was added to each well of the assay plate. • 9) A 100 μl aliquot of steadylite plus reagent (light sensitive) was added to each well of the assay plate. • 10) Each assay plate was covered with aluminum foil to protect it from light and shaken at 250 RPM for 30 min at room temperature. • 11) Each assay plate was read in a microtiter plate reader.
(§6) The data from the microtiter plate reader was first regressed in an Excel in order to calculate the x-axis, log scale concentrations based on the individual test compound's stock concentration and the dilutions of the assay. […] The software performs a non-linear regression (log(agonist) vs response). A minimum of two replicates was measured for each sample. The reported values are averages of the replicates.

[2] = Pharmacokinetic study in dogs, oral dosing of tablet compositions with SNAC; assay type: in vivo, Beagle dogs; conditions: dog, in vivo, po
In short: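 Male beagle dogs (9-17 kg), fasted, received a single oral tablet with 100-300 mg SNAC and 3-4 mg test substance, groups of 6-8.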

[3] = target: T2, human GLP-1 receptor (Homo sapiens, UniProt P43220); experiment: In vitro functional potency, CRE luciferase reporter gene assay, whole BHK cells expressing hGLP-1R; assay type: cell-based; conditions: BHK CRE luc2P hGLP-1R cells
T2 construct: expressed in transfected cells; host or cells: BHK (parent line BHKTS13), clone BHK CRE luc2P hGLP-1R
T2 sequence (P43220 24-463): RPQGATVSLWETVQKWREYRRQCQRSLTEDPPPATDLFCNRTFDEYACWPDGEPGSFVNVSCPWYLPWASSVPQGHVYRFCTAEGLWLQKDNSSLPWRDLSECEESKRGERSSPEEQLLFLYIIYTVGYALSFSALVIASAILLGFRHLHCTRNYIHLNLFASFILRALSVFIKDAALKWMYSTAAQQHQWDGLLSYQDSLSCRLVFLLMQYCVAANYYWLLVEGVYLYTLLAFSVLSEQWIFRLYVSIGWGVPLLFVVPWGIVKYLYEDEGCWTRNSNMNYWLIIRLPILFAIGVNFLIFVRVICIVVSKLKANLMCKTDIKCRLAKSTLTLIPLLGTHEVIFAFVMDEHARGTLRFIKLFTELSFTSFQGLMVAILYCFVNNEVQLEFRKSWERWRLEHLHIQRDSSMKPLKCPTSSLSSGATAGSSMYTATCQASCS
Experimental: as §1, §2, §3, §4, §5, §6

[4] = 0% HSA, read-out: hGIPR, CRE Luc 0% HSA EC50
[5] = hGIPR, CRE Luc 1% HSA EC50, 1% HSA
[6] = 0% HSA, read-out: hGLP-1R, CRE Luc 0% HSA EC50
[7] = hGLP-1R, CRE Luc 1% HSA EC50, 1% HSA

CC[C@H](C)[C@H](NC(=O)[C@H](Cc1ccccc1)NC(=O)[C@H](CCC(=O)O)NC(=O)[C@H](CCCNC(=N)N)NC(=O)[C@H](C)NC(=O)[C@H](C)NC(=O)[C@H](CCC(N)=O)NC(=O)[C@H](CCCCNC(=O)[C@@H](N)CCCCNC(=O)[C@@H](N)CCCCNC(=O)CC[C@H](NC(=O)CCCCCCCCCCCCCCCCC(=O)O)C(=O)O)NC(=O)[C@H](CCC(=O)O)NC(=O)[C@H](CC(C)C)NC(=O)[C@H](Cc1ccc(O)cc1)NC(=O)[C@@H](NC(=O)[C@H](CO)NC(=O)[C@H](Cc1ccc(O)cc1)NC(=O)[C@H](CC(=O)O)NC(=O)[C@H](CO)NC(=O)[C@@H](NC(=O)[C@H](Cc1ccccc1)NC(=O)[C@@H](NC(=O)CNC(=O)[C@H](CCC(=O)O)NC(=O)C(C)(C)NC(=O)[C@@H](N)Cc1ccc(O)cc1)[C@@H](C)O)[C@@H](C)O)[C@@H](C)CC)C(=O)N[C@@H](CCC(=O)O)C(=O)N[C@@H](Cc1c[nH]c2ccccc12)C(=O)N[C@@H](CC(C)C)C(=O)N[C@@H](CC(C)C)C(=O)N[C@@H](C)C(=O)NCC(=O)NCC(=O)N1CCC[C@H]1C(=O)N[C@@H](CO)C(=O)N[C@@H](CO)C(=O)NCC(=O)N[C@@H](C)C(=O)N1CCC[C@H]1C(=O)N1CCC[C@H]1C(=O)N1CCC[C@H]1C(=O)N[C@@H](CO)C(=O)O [Compound No. 9] (H-Y[Aib]EGTFTSDYSIYLEK([εLys-εLys-γGlu-C18 diacid])QAAREFIEWLLAGGPSSGAPPPS-OH)
AUC/Dose [2]: 12.1 kg·h/L
Tmax ([2]; male, beagle, Tmax): 2 h
half-life ([2]; male, beagle, t1/2): 50 h
EC50 [3, 6]: 0.0038 nM
EC50 [3, 7]: 0.279 nM

CC[C@H](C)[C@H](NC(=O)[C@H](Cc1ccccc1)NC(=O)[C@H](CCC(=O)O)NC(=O)[C@H](CCCNC(=N)N)NC(=O)[C@H](C)NC(=O)[C@H](C)NC(=O)[C@H](CCC(N)=O)NC(=O)[C@H](CCCCNC(=O)[C@@H](N)CCCCNC(=O)[C@@H](N)CCCCNC(=O)CC[C@H](NC(=O)CCCCCCCCCCCCCCCCC(=O)O)C(=O)O)NC(=O)[C@H](CCC(=O)O)NC(=O)[C@H](CC(C)C)NC(=O)[C@H](Cc1ccc(O)cc1)NC(=O)[C@@H](NC(=O)[C@H](CO)NC(=O)[C@H](Cc1ccc(O)cc1)NC(=O)[C@H](CC(=O)O)NC(=O)[C@H](CO)NC(=O)[C@@H](NC(=O)[C@H](Cc1ccccc1)NC(=O)[C@@H](NC(=O)CNC(=O)[C@H](CCC(=O)O)NC(=O)C(C)(C)NC(=O)[C@@H](N)Cc1ccc(O)cc1)[C@@H](C)O)[C@@H](C)O)[C@@H](C)CC)C(=O)N[C@@H](CCC(=O)O)C(=O)N[C@@H](Cc1c[nH]c2ccccc12)C(=O)N[C@@H](CC(C)C)C(=O)N[C@@H](CC(C)C)C(=O)N[C@@H](CCCNC(=N)N)C(=O)NCC(=O)NCC(=O)N1CCC[C@H]1C(=O)N[C@@H](CO)C(=O)N[C@@H](CO)C(=O)NCC(=O)N[C@@H](C)C(=O)N1CCC[C@H]1C(=O)N1CCC[C@H]1C(=O)N1CCC[C@H]1C(=O)N[C@@H](CO)C(=O)O [Compound No. 12] (H-Y[Aib]EGTFTSDYSIYLEK([εLys-εLys-γGlu-C18 diacid])QAAREFIEWLLRGGPSSGAPPPS-OH; N-terminus assumed)
EC50 [1, 4]: 0.009 nM
EC50 [1, 5]: 0.0715 nM
EC50 [3, 6]: 0.004 nM
EC50 [3, 7]: 0.0544 nM

CC[C@H](C)[C@H](NC(=O)[C@H](CO)NC(=O)[C@H](Cc1ccc(O)cc1)NC(=O)[C@H](CC(=O)O)NC(=O)[C@H](CO)NC(=O)[C@@H](NC(=O)[C@H](Cc1ccccc1)NC(=O)[C@@H](NC(=O)CNC(=O)[C@H](CCC(=O)O)NC(=O)C(C)(C)NC(=O)[C@@H](N)Cc1ccc(O)cc1)[C@@H](C)O)[C@@H](C)O)C(=O)N[C@@H](C)C(=O)N[C@@H](CC(C)C)C(=O)N[C@@H](CCC(=O)O)C(=O)N[C@@H](CCCCNC(=O)[C@@H](N)CCCCNC(=O)[C@@H](N)CCCCNC(=O)CC[C@H](NC(=O)CCCCCCCCCCCCCCCCC(=O)O)C(=O)O)C(=O)N[C@@H](CCC(N)=O)C(=O)N[C@@H](C)C(=O)N[C@@H](C)C(=O)N[C@@H](CCCNC(=N)N)C(=O)N[C@@H](CCC(=O)O)C(=O)N[C@@H](Cc1ccccc1)C(=O)N[C@H](C(=O)N[C@@H](CC(N)=O)C(=O)N[C@@H](Cc1c[nH]c2ccccc12)C(=O)N[C@@H](CC(C)C)C(=O)N[C@@H](CC(C)C)C(=O)N[C@@H](C)C(=O)NCC(=O)NCC(=O)N1CCC[C@H]1C(=O)N[C@@H](CO)C(=O)N[C@@H](CO)C(=O)NCC(=O)N[C@@H](C)C(=O)N1CCC[C@H]1C(=O)N1CCC[C@H]1C(=O)N1CCC[C@H]1C(=O)N[C@@H](CO)C(=O)O)[C@@H](C)CC [Compound No. 14] (H-Y[Aib]EGTFTSDYSIALEK([εLys-εLys-γGlu-C18 diacid])QAAREFINWLLAGGPSSGAPPPS-OH)
EC50 [1, 4]: 0.0116 nM
EC50 [1, 5]: 0.58 nM
EC50 [3, 6]: 0.0054 nM
EC50 [3, 7]: 0.306 nM

CC(C)C[C@H](NC(=O)[C@H](CC(C)C)NC(=O)[C@H](Cc1c[nH]c2ccccc12)NC(=O)[C@H](CC(N)=O)NC(=O)[C@@H](NC(=O)[C@H](Cc1ccccc1)NC(=O)[C@H](C)NC(=O)[C@H](CCC(N)=O)NC(=O)[C@H](C)NC(=O)[C@H](C)NC(=O)[C@H](CCC(N)=O)NC(=O)[C@H](CCCCNC(=O)[C@@H](N)CCCCNC(=O)[C@@H](N)CCCCNC(=O)CC[C@H](NC(=O)CCCCCCCCCCCCCCCCC(=O)O)C(=O)O)NC(=O)[C@H](CCC(=O)O)NC(=O)[C@H](CC(C)C)NC(=O)[C@H](Cc1ccc(O)cc1)NC(=O)[C@H](Cc1ccc(O)cc1)NC(=O)[C@H](CO)NC(=O)[C@H](Cc1ccc(O)cc1)NC(=O)[C@H](CC(=O)O)NC(=O)[C@H](CO)NC(=O)[C@@H](NC(=O)[C@H](Cc1ccccc1)NC(=O)[C@@H](NC(=O)CNC(=O)[C@H](CCC(=O)O)NC(=O)C(C)(C)NC(=O)[C@@H](N)Cc1ccc(O)cc1)[C@@H](C)O)[C@@H](C)O)C(C)C)C(=O)N[C@@H](C)C(=O)NCC(=O)NCC(=O)N1CCC[C@H]1C(=O)N[C@@H](CO)C(=O)N[C@@H](CO)C(=O)NCC(=O)N[C@@H](C)C(=O)N1CCC[C@H]1C(=O)N1CCC[C@H]1C(=O)N1CCC[C@H]1C(=O)N[C@@H](CO)C(N)=O [Compound No. 4] (H-Y[Aib]EGTFTSDYSYYLEK([εLys-εLys-γGlu-C18 diacid])QAAQAFVNWLLAGGPSSGAPPPS-NH2; N-terminus assumed)
EC50 [1, 4]: 0.0085 nM
EC50 [1, 5]: 0.294 nM
EC50 [3, 6]: 0.0066 nM
EC50 [3, 7]: 0.484 nM
